The record followed here is US7803930B2, “Antisense modulation of apolipoprotein B-expression” (Isis Pharmaceuticals, Inc., priority 2002, dated 2010).

In the oligonucleotide strings, read from the 5' end, every base follows the letter of its sugar. An asterisk marks phosphorothioate; unmarked linkages are phosphodiester. Other units and linkages are bracketed, terminal groups are in braces. A string of capitals states the bases alone. e = 2'-O-(2-methoxyethyl) (MOE); [5mC] = 5-methylcytosine; d = 2'-deoxy (DNA)

The series relates to human apolipoprotein B mRNA. Kind of series: Inhibition of human apolipoprotein B mRNA levels in HepG2 cells, quantitative real-time PCR. The series is classed as cell-based. The note with it: for % INHIB 50 nm / % INHIB 150 nm / % INHIB / % Change in apolipoprotein B mRNA expression: HepG2 cells; for % INHIB (inhibition of human apolipoprotein B mRNA levels): HepG2 cells treated with 150 nM of compound, quantitative real-time PCR; for % Change in apolipoprotein B mRNA expression: 24 hour (Table 40). The procedure: The human hepatoblastoma cell line HepG2 was obtained from the American Type Culture Collection (Manassas, Va.). HepG2 cells were routinely cultured in Eagle's MEM supplemented with 10% fetal calf serum, non-essential amino acids, and 1 mM sodium pyruvate (Gibco/Life Technologies, Gaithersburg, Md.). Cells were routinely passaged by trypsinization and dilution when they reached 90% confluence. Cells were seeded into 96-well plates (Falcon-Primaria #3872) at a density of 7000 cells/well for use in RT-PCR analysis.
When cells reached 80% confluency, they were treated with oligonucleotide. For cells grown in 96-well plates, wells were washed once with 200 μL OPTI-MEM™-1 reduced-serum medium (Gibco BRL) and then treated with 130 μL of OPTI-MEM™-1 containing 3.75 μg/mL LIPOFECTIN™ (Gibco BRL) and the desired concentration of oligonucleotide. After 4-7 hours of treatment, the medium was replaced with fresh medium. Cells were harvested 16-24 hours after oligonucleotide treatment.
Quantitation of apolipoprotein B mRNA levels was determined by real-time quantitative PCR using the ABI PRISM™ 7700 Sequence Detection System (PE-Applied Biosystems, Foster City, Calif.) according to manufacturer's instructions. This is a closed-tube, non-gel-based, fluorescence detection system which allows high-throughput quantitation of polymerase chain reaction (PCR) products in real-time. As opposed to standard PCR, in which amplification products are quantitated after the PCR is completed, products in real-time quantitative PCR are quantitated as they accumulate. This is accomplished by including in the PCR reaction an oligonucleotide probe that anneals specifically between the forward and reverse PCR primers, and contains two fluorescent dyes. A reporter dye (e.g., JOE, FAM, or VIC, obtained from either Operon Technologies Inc., Alameda, Calif. or PE-Applied Biosystems, Foster City, Calif.) is attached to the 5′ end of the probe and a quencher dye (e.g., TAMRA, obtained from either Operon Technologies Inc., Alameda, Calif. or PE-Applied Biosystems, Foster City, Calif.) is attached to the 3′ end of the probe. When the probe and dyes are intact, reporter dye emission is quenched by the proximity of the 3′ quencher dye. During amplification, annealing of the probe to the target sequence creates a substrate that can be cleaved by the 5′-exonuclease activity of Taq polymerase. […] With each cycle, additional reporter dye molecules are cleaved from their respective probes, and the fluorescence intensity is monitored at regular intervals by laser optics built into the ABI PRISM™ 7700 Sequence Detection System. In each assay, a series of parallel reactions containing serial dilutions of mRNA from untreated control samples generates a standard curve that is used to quantitate the percent inhibition after antisense oligonucleotide treatment of test samples.
PCR reagents were obtained from PE-Applied Biosystems, Foster City, Calif. RT-PCR reactions were carried out by adding 25 μL PCR cocktail (1× TAQMAN™ buffer A, 5.5 mM MgCl2, 300 μM each of DATP, dCTP and dGTP, 600 μM of dUTP, 100 nM each of forward primer, reverse primer, and probe, 20 Units RNAse inhibitor, 1.25 Units AMPLITAQ GOLD™, and 12.5 Units MuLV reverse transcriptase) to 96 well plates containing 25 μL total RNA solution. The RT reaction was carried out by incubation for 30 minutes at 48° C. Following a 10 minute incubation at 95° C. to activate the AMPLITAQ GOLD™, 40 cycles of a two-step PCR protocol were carried out: 95° C. for 15 seconds (denaturation) followed by 60° C. for 1.5 minutes (annealing/extension).
Gene target quantities obtained by real time RT-PCR are normalized using either the expression level of GAPDH, a gene whose expression is constant, or by quantifying total RNA using RiboGreen™ (Molecular Probes, Inc. Eugene, Oreg.). GAPDH expression is quantified by real time RT-PCR, by being run simultaneously with the target, multiplexing, or separately. […]
In general terms: Real-time PCR tracks product formation cycle by cycle.

The mark [1] stands for this setting: Table 11 gene walk, 50 nM, averages from two experiments.
Where [2] appears, read: Table 11 gene walk, 150 nM, averages from two experiments.
Setting [3] is: human apolipoprotein B mRNA, oligonucleotides targeting genomic sequence SEQ ID NO 334, averages from two experiments.
The mark [4] stands for this setting: Table 1, 150 nM, averages from two experiments.
Where [5] appears, read: Table 17 variable gap, 50 nM, averages from three experiments.
Where [6] appears, read: Table 17 variable gap, 150 nM, averages from three experiments.

For the substance “308605 (eG*eA*eA*eT*eG*dT*d[5mC]*dA*dT*dG*dG*dT*dA*dG*d[5mC]*e[5mC]*eT*e[5mC]*eA*eG; antisense) [compound 308605]”, the “% INHIB 50 nm” value under setting [1] came to 50%. The “% INHIB 150 nm” value under setting [2] is recorded as 81%.

With “301049 (eT*e[5mC]*eT*eG*eT*dA*dA*dG*dA*d[5mC]*dA*dG*dG*dA*dG*eA*eA*eA*eG*eA; antisense) [compound 301049]”, under setting [3], the “% INHIB” value was determined as 41%.

Take “308602 (antisense e[5mC]*eA*eT*eG*eG*dT*dA*dG*d[5mC]*d[5mC]*dT*d[5mC]*dA*dG*dT*e[5mC]*eT*eG*e[5mC]*eT) [compound 308602]”: the “% INHIB 50 nm” value under setting [1] is on record as 83%. In addition, under setting [2], the “% INHIB 150 nm” value was determined as 92%.

Regarding “301033 (eA*e[5mC]*eT*eG*e[5mC]*d[5mC]*dT*dA*d[5mC]*dT*dG*d[5mC]*dA*dA*dG*eG*e[5mC]*eT*eG*eG; antisense) [compound 301033]”, the “% INHIB (inhibition of human apolipoprotein B mRNA levels)” value (averages from two experiments) is listed as 77%.

Turning to “281646 (eT*e[5mC]*e[5mC]*e[5mC]*eG*dG*dA*d[5mC]*d[5mC]*d[5mC]*dT*d[5mC]*dA*dA*d[5mC]*eT*e[5mC]*eA*eG*eT; antisense) [compound 281646]”, the “% INHIB (inhibition of human apolipoprotein B mRNA levels)” value (averages from two experiments) came to 76%.

Regarding “271005 (antisense eG*eG*e[5mC]*eA*e[5mC]*d[5mC]*d[5mC]*dA*dT*d[5mC]*dA*dG*dA*dA*dG*e[5mC]*eA*eG*e[5mC]*eT) [compound 271005]”, the “% INHIB (inhibition of human apolipoprotein B mRNA levels)” value (averages from two experiments) is 32%.

Consider “308599 (antisense eA*eG*e[5mC]*e[5mC]*eT*d[5mC]*dA*dG*dT*d[5mC]*dT*dG*d[5mC]*dT*dT*e[5mC]*eG*e[5mC]*eA*e[5mC]) [compound 308599]”, for which the “% INHIB 50 nm” value under setting [1] was determined as 79%. Besides, the “% INHIB 150 nm” value under setting [2] is 94%.

On to “147794 (antisense eG*eT*eA*eA*eT*d[5mC]*dT*dT*d[5mC]*dA*dT*d[5mC]*d[5mC]*d[5mC]*d[5mC]*eA*eG*eT*eG*e[5mC]) [compound 147794]”, for which the “% INHIB” value under setting [4] is on record as 47%.

Take “271020 (antisense eT*eT*eG*eA*eA*dT*d[5mC]*d[5mC]*dA*dG*dG*dA*dT*dG*d[5mC]*eA*eG*eT*eA*e[5mC]) [compound 271020]”: the “% INHIB (inhibition of human apolipoprotein B mRNA levels)” value (averages from two experiments) came out at 35%.

In the case of “332776 (antisense GCCTAATTATTATTATCACC; sugars from the 5' end e5 d10 e5, all phosphorothioate, methylation of C not given here) [compound 332776]”, the “% Change in apolipoprotein B mRNA expression” value is, setting by setting: (50 nM) “+10%”; (150 nM) “+20%”.

In the case of “147828 (antisense eA*e[5mC]*eG*eT*eT*dA*dT*d[5mC]*d[5mC]*dT*dT*dG*dA*dG*dT*e[5mC]*e[5mC]*e[5mC]*eT*eG) [compound 147828]”, under setting [4], the “% INHIB” value is recorded as 12%.

“301161 (eA*eT*eG*e[5mC]*eA*dT*dT*d[5mC]*d[5mC]*d[5mC]*dT*dG*dA*d[5mC]*dT*eA*eG*e[5mC]*eA*e[5mC]; antisense) [compound 301161]”: under setting [3], the “% INHIB” value came to 34%.

For the substance “301134 (e[5mC]*e[5mC]*eA*eA*eG*d[5mC]*d[5mC]*dA*dA*dT*d[5mC]*dT*dG*dA*dG*eA*eA*eA*eG*eA; antisense) [compound 301134]”, the “% INHIB” value under setting [3] came to 25%.

On to “308661 (antisense AGTCTGCTTCGCGCCTTCTG; 2-10-8 2'-MOE gapmer, phosphorothioate, chemistry not fully specified) [compound 308661]”, for which the “% INHIB 50 nm” value under setting [5] was determined as 70%. Besides, the “% INHIB 150 nm” value under setting [6] is 91%.

In the case of “271026 (eG*eA*e[5mC]*eT*e[5mC]*d[5mC]*dT*dT*d[5mC]*dA*dG*dA*dG*d[5mC]*d[5mC]*eA*eG*e[5mC]*eG*eG; antisense) [compound 271026]”, for the setting “averages from two experiments”, the “% INHIB (inhibition of human apolipoprotein B mRNA levels)” value is reported as 39%.

“301211 (antisense e[5mC]*eT*e[5mC]*eT*e[5mC]*dT*dG*dA*dA*dA*dA*dA*dT*dA*dT*eA*e[5mC]*e[5mC]*e[5mC]*eT) [compound 301211]”: the “% INHIB” value under setting [3] turned out to be 17%.

With “301130 (e[5mC]*eT*eG*eA*e[5mC]*dA*d[5mC]*dA*d[5mC]*d[5mC]*dA*dT*dG*dT*dT*eA*eT*eT*eA*eT; antisense) [compound 301130]”, under setting [3], the “% INHIB” value was found to be 10%.

As to “147785 (antisense eG*e[5mC]*e[5mC]*e[5mC]*eG*d[5mC]*d[5mC]*dA*dG*d[5mC]*dA*dG*d[5mC]*dA*dG*e[5mC]*eA*eG*e[5mC]*eA) [compound 147785]”, the “% INHIB” value under setting [4] is given as 29%.

Take “301163 (antisense eG*e[5mC]*eT*eG*eG*dG*d[5mC]*dA*dT*dG*d[5mC]*dT*d[5mC]*dT*d[5mC]*eT*e[5mC]*e[5mC]*e[5mC]*e[5mC]) [compound 301163]”: under setting [3], the “% INHIB” value is given as 51%.

As to “301050 (eA*eT*eT*eT*e[5mC]*d[5mC]*dT*d[5mC]*dT*dT*d[5mC]*dT*dG*dT*dA*eA*eG*eA*e[5mC]*eA; antisense) [compound 301050]”, the “% INHIB” value under setting [3] amounted to 22%.

With “308595 (antisense eT*e[5mC]*eT*eG*e[5mC]*dT*dT*d[5mC]*dG*d[5mC]*dA*d[5mC]*d[5mC]*dT*dT*e[5mC]*eT*eG*e[5mC]*eT) [compound 308595]”, the “% INHIB 50 nm” value under setting [1] worked out at 60%. Also, the “% INHIB 150 nm” value under setting [2] was 82%.

Turning to “308593 (antisense e[5mC]*eT*eT*e[5mC]*eG*d[5mC]*dA*d[5mC]*d[5mC]*dT*dT*d[5mC]*dT*dG*d[5mC]*eT*eT*eG*eA*eG) [compound 308593]”, the “% INHIB 50 nm” value under setting [1] was 41%. Besides, the “% INHIB 150 nm” value under setting [2] was 80%.

For “270999 (antisense eG*eT*eT*eG*eA*d[5mC]*d[5mC]*dG*d[5mC]*dG*dT*dG*dG*d[5mC]*dT*e[5mC]*eA*eG*e[5mC]*eG) [compound 270999]”, the “% INHIB (inhibition of human apolipoprotein B mRNA levels)” value (averages from two experiments) was 76%.

Regarding “308639 (GCCTCAGTCTGCTTCGCGCC; all C 5-methyl, all phosphorothioate, sugars by position not given here; further chemistry not fully specified) [compound 308639]”, under setting [5], the “% INHIB 50 nm” value was 86%. For the same substance, the “% INHIB 150 nm” value under setting [6] worked out at 94%.

With “301201 (antisense eA*eA*eA*eA*eT*d[5mC]*d[5mC]*dA*dT*dT*dT*dT*d[5mC]*dT*dT*eT*eA*eA*eA*eG) [compound 301201]”, the “% INHIB” value under setting [3] turned out to be 12%.

As for “301190 (antisense eA*eG*eA*e[5mC]*eA*d[5mC]*dA*dT*dA*d[5mC]*d[5mC]*dA*dT*dA*dA*eT*eG*e[5mC]*e[5mC]*eA) [compound 301190]”, the “% INHIB” value under setting [3] is 22%.

In the case of “308663 (antisense AGTCTGCTTCGCGCCTTCTG; 8-10-2 2'-MOE gapmer, phosphorothioate, chemistry not fully specified) [compound 308663]”, the “% INHIB 50 nm” value under setting [5] is 44%. Also, the “% INHIB 150 nm” value under setting [6] worked out at 84%.

Regarding “301143 (eT*eT*eA*e[5mC]*e[5mC]*dA*dT*dA*dT*d[5mC]*d[5mC]*dT*dG*dA*dG*eA*eG*eT*eT*eT; antisense) [compound 301143]”, the “% INHIB” value under setting [3] is 55%.
